Measurements from patent US20240342292A1, “Compounds for the Degradation of EGFR Kinase” (BeiGene Switzerland GmbH, priority 2021, published 2024).

Tests used:
L858R/T790M/C797S EGFR = biological target: T1, L858R/T790M/C797S EGFR (Homo sapiens, UniProt P00533, C797S/L858R/T790M); assay: EGFR degradation HTRF assay in H1975-clone #25 (LTC) cells; assay type: cell-based; settings: 16h treatment; for DC50: H1975 # 25-LTC (L858R/T790M/C797S), HTRF; for Dmax: NCI-H1975, H1975 # 25-LTC (L858R/T790M/C797S), maximum percentage of degradation
T1 construct: expressed in transfected cells; host or cells: H1975 clone #25 (lentiviral over-expression, endogenous EGFR knocked out by sgRNA)
T1 sequence (P00533 25-1210 T790M/C797S/L858R): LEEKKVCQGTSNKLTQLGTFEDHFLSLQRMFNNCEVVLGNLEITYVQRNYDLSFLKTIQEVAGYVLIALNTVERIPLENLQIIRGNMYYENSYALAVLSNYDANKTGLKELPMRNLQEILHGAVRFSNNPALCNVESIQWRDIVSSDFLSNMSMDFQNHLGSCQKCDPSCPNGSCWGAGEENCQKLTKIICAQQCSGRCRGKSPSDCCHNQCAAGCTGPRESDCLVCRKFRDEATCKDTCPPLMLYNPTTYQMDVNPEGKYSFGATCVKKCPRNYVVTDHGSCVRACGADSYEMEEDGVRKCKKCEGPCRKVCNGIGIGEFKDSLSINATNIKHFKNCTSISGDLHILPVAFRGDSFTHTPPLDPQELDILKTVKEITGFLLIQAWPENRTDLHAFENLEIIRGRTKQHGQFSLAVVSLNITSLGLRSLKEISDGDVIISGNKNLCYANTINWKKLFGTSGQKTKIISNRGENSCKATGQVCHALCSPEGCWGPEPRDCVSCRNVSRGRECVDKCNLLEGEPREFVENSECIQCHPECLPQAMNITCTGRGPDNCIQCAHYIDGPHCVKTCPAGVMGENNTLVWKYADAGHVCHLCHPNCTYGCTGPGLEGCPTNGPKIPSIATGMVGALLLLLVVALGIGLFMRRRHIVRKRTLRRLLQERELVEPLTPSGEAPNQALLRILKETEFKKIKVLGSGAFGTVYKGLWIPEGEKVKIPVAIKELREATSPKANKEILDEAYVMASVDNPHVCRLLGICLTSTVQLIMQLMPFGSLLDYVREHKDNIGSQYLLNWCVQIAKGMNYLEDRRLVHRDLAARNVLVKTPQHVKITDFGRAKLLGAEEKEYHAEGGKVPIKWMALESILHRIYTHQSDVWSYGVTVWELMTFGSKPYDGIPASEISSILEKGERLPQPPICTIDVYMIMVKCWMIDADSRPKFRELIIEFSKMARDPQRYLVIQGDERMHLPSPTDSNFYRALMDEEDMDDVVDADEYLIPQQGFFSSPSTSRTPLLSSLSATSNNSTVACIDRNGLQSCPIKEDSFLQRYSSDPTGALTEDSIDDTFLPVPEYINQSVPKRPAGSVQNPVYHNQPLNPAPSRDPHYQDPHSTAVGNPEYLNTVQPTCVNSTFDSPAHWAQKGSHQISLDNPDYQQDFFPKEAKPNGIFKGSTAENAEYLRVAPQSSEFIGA
Procedure, shortened: (§1)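 Cells carrying only lentiviral mutant EGFR, since endogenous alleles were removed by CRISPR, received compounds on day 2 for 16 h. Final concentrations ran from 10 uM down in 5-fold steps over 8 doses. After lysis, EGFR levels were quantified by HTRF and DC50 derived by curve fitting.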

Del19/T790M/C797S EGFR = assay: EGFR degradation HTRF assay in H1975-clone #28 (DTC) cells; assay type: cell-based; settings: H1975 # 28 DTC (Del19/T790M/C797S), 16h treatment; for DC50: HTRF; for Dmax (%): maximum percentage of degradation
Procedure, shortened: as §1

Row | SMILES | DC50 (L858R/T790M/C797S EGFR) | Dmax (L858R/T790M/C797S EGFR) | DC50 (Del19/T790M/C797S EGFR) | Dmax (%) (Del19/T790M/C797S EGFR)
1 | CCN(CCN1CCN(c2cc(F)c([C@H]3CCC(=O)NC3=O)c(F)c2)CC1)C(=O)c1ccc2c(c1)N1C[C@H](C)CCCOc3c(cnn3C)-c3cc(cc(C)n3)C(=O)/N=C/1N2 [Example 281, (R,E)-N-(2-(4-(4-((R)-2,6-dioxopiperidin-3-yl)-3,5-difluorophenyl)piperazin-1-yl)ethyl)-N-ethyl-1′,2^6,7-trimethyl-3-oxo-5^2,5^3-dihydro-1^1H,5^1H-11-oxa-4-aza-5(2,1)-benzo[d]imidazola-2(2,4)-pyridina-1(4,5)-pyrazolacycloundecaphane-5^6-carboxamide] | 0.411 nM | 90.4% | 0.501 nM | 75.01%
2 | Cc1cc2cc(n1)-c1cnn(C)c1OCCC[C@@H](C)CN1/C(=N/C2=O)Nc2ccc(C(=O)N(CCN3CCN(c4cc(F)c([C@H]5CCC(=O)NC5=O)c(F)c4)CC3)C(C)C)cc21 [Example 282, (R,E)-N-(2-(4-(4-((R)-2,6-dioxopiperidin-3-yl)-3,5-difluorophenyl)piperazin-1-yl)ethyl)-N-isopropyl-1^1,2^6,7-trimethyl-3-oxo-5^2,5^3-dihydro-1^1H,5^1H-11-oxa-4-aza-5(2,1)-benzo[d]imidazola-2(2,4)-pyridina-1(4,5)-pyrazolacycloundecaphane-5^6-carboxamide] | 0.752 nM | 82.9% | 0.657 nM | 77.76%
3 | Cc1cc2cc(n1)-c1cnn(C)c1OCCC[C@@H](C)CN1/C(=N/C2=O)Nc2ccc(C(=O)N(CCN3CCC(c4cc(F)c([C@H]5CCC(=O)NC5=O)c(F)c4)CC3)C(C)C)cc21 [Example 283, (R,E)-N-(2-(4-(4-((R)-2,6-dioxopiperidin-3-yl)-3,5-difluorophenyl)piperidin-1-yl)ethyl)-N-isopropyl-1^1,2^6,7-trimethyl-3-oxo-5^2,5^3-dihydro-1^1H,5^1H-11-oxa-4-aza-5(2,1)-benzo[d]imidazola-2(2,4)-pyridina-1(4,5)-pyrazolacycloundecaphane-5^6-carboxamide] | 0.494 nM | 80.2% | 0.617 nM | 72.52%
4 | Cc1cc2cc(n1)-c1cnn(C)c1OCCC[C@@H](C)CN1/C(=N/C2=O)Nc2ccc(C(=O)N(C)C3CCN(CCC4CN(c5cc(F)c([C@H]6CCC(=O)NC6=O)c(F)c5)C4)CC3)cc21 [Example 285, (R,E)-N-(1-(2-(1-(4-((R)-2,6-dioxopiperidin-3-yl)-3,5-difluorophenyl)azetidin-3-yl)ethyl)piperidin-4-yl)-N,1^1,2^6,7-tetramethyl-3-oxo-5^2,5^3-dihydro-1^1H,5^1H-11-oxa-4-aza-5(2,1)-benzo[d]imidazola-2(2,4)-pyridina-1(4,5)-pyrazolacycloundecaphane-5^6-carboxamide] | 0.651 nM | 89.8% | 0.667 nM | 77.98%
5 | Cc1cc2cc(n1)-c1cnn(C)c1OCCC[C@@H](C)CN1/C(=N/C2=O)Nc2ccc(C(=O)N(C)C3CCN(CC4CN(c5cc(F)c([C@H]6CCC(=O)NC6=O)c(F)c5)C4)CC3)cc21 [Example 286, (R,E)-N-(1-((1-(4-((R)-2,6-dioxopiperidin-3-yl)-3,5-difluorophenyl)azetidin-3-yl)methyl)piperidin-4-yl)-N,1^1,2^6,7-tetramethyl-3-oxo-5^2,5^3-dihydro-1^1H,5^1H-11-oxa-4-aza-5(2,1)-benzo[d]imidazola-2(2,4)-pyridina-1(4,5)-pyrazolacycloundecaphane-5^6-carboxamide] | 0.45 nM | 91.2% | 0.652 nM | 72.5%
6 | Cc1cc2cc(n1)-c1cnn(C)c1OCCC[C@@H](C)CN1/C(=N/C2=O)Nc2ccc(C(=O)N(C)C3CCN(CC4CCN(c5cc(F)c([C@H]6CCC(=O)NC6=O)c(F)c5)CC4)CC3)cc21 [Example 287, (R,E)-N-(1-((1-(4-((R)-2,6-dioxopiperidin-3-yl)-3,5-difluorophenyl)piperidin-4-yl)methyl)piperidin-4-yl)-N,1^1,2^6,7-tetramethyl-3-oxo-5^2,5^3-dihydro-1^1H,5^1H-11-oxa-4-aza-5(2,1)-benzo[d]imidazola-2(2.4)-pyridina-1(4,5)-pyrazolacycloundecaphane-5^6-carboxamide] | 0.581 nM | 93.5% | 0.918 nM | 88.53%

The next lines start with results.

Row | DC50 (L858R/T790M/C797S EGFR) | Dmax (L858R/T790M/C797S EGFR) | DC50 (Del19/T790M/C797S EGFR) | SMILES | Dmax (%) (Del19/T790M/C797S EGFR)
7 | 0.662 nM | 92.8% | 0.488 nM | CCN(C(=O)c1ccc2c(c1)N1C[C@H](C)CCCOc3c(cnn3C)-c3cc(cc(C)n3)C(=O)/N=C/1N2)C1CCN(C2CCN(c3cc(F)c([C@H]4CCC(=O)NC4=O)c(F)c3)CC2)CC1 [Example 288, (R,E)-N-(1′-(4-((R)-2,6-dioxopiperidin-3-yl)-3,5-difluorophenyl)-[1,4′-bipiperidin]-4-yl)-N-ethyl-1^1, 2^6,7-trimethyl-3-oxo-5^2,5^3-dihydro-1^1H,5^1H-11-oxa-4-aza-5(2,1)-benzo[d]imidazola-2(2,4)-pyridina-1(4,5)-pyrazolacycloundecaphane-5^6-carboxamide] | 79.62%
8 | 0.454 nM | 93.8% | 0.624 nM | Cc1cc2cc(n1)-c1cnn(C)c1OCCC[C@@H](C)CN1/C(=N/C2=O)Nc2ccc(C(=O)N(C)C3CCN(C4CCN(c5cc(F)c([C@H]6CCC(=O)NC6=O)c(F)c5)CC4)CC3)cc21 [Example 289, (R,E)-N-(1′-(4-((R)-2,6-dioxopiperidin-3-yl)-3,5-difluorophenyl)-[1,4′-bipiperidin]-4-yl)-N,1^1,2^6,7-tetramethyl-3-oxo-5^2,5^3-dihydro-1^1H,5^1H-11-oxa-4-aza-5(2,1)-benzo[d]imidazola-2(2,4)-pyridina-1(4,5)-pyrazolacycloundecaphane-5^6-carboxamide] | 91.07%
9 | 0.644 nM | 89.1% | 0.64 nM | Cc1cc2cc(n1)-c1cnn(C)c1OCCC[C@@H](C)CN1/C(=N/C2=O)Nc2ccc(C(=O)N(C)C3CCN(C4CN(c5cc(F)c([C@H]6CCC(=O)NC6=O)c(F)c5)C4)CC3)cc21 [Example 290, (R,E)-N-(1-(1-(4-((R)-2,6-dioxopiperidin-3-yl)-3,5-difluorophenyl)azetidin-3-yl)piperidin-4-yl)-N,1′,2^6,7-tetramethyl-3-oxo-5^2,5′-dihydro-1^1H,5^1H-11-oxa-4-aza-5(2,1)-benzo[d]imidazola-2(2,4)-pyridina-1(4,5)-pyrazolacycloundecaphane-5^6-carboxamide] | 80.73%
10 | 0.63 nM | 79% | 0.513 nM | Cc1cc2cc(n1)-c1cnn(C)c1OCCC[C@@H](C)CN1/C(=N/C2=O)Nc2ccc(C(=O)N(C)[C@@H]3CCN(CCc4cc(F)c([C@H]5CCC(=O)NC5=O)c(F)c4)C3)cc21 [Example 291, (R,E)-N—((R)-1-(4-((R)-2,6-dioxopiperidin-3-yl)-3,5-difluorophenethyl)pyrrolidin-3-yl)-N,1^1,2^6,7-tetramethyl-3-oxo-5^2,5^3-dihydro-1^1H,5^1H-11-oxa-4-aza-5(2,1)-benzo[d]imidazola-2(2,4)-pyridina-1(4,5)-pyrazolacycloundecaphane-5^6-carboxamide] | 72.04%
11 | 0.514 nM | 89.4% | 0.608 nM | Cc1cc2cc(n1)-c1cnn(C)c1OCCC[C@@H](C)CN1/C(=N/C2=O)Nc2ccc(C(=O)N(C)[C@@H]3CCCN(CCc4cc(F)c([C@H]5CCC(=O)NC5=O)c(F)c4)CC3)cc21 [Example 292, (R,E)-N—((R)-1-(4-((R)-2,6-dioxopiperidin-3-yl)-3,5-difluorophenethyl)azepan-4-yl)-N,1^1,2^6,7-tetra methyl-3-oxo-5^2,5^3-dihydro-1^1H,5^1H-11-oxa-4-aza-5(2,1)-benzo[d]imidazola-2(2,4)-pyridina-1(4,5)-pyrazolacycloundecaphane-5^6-carboxamide] | 85.48%
12 | 1.56 nM | 86.3% | 0.997 nM | Cc1cc2cc(n1)-c1cnn(C)c1OCCC[C@@H](C)CN1/C(=N/C2=O)Nc2ccc(C(=O)N(C)C3C[C@H]4CN(CCc5cc(F)c([C@H]6CCC(=O)NC6=O)c(F)c5)C[C@@H]4C3)cc21 [Example 293, (R,E)-N—((3aR,6aR)-2-(4-((R)-2,6-dioxopiperidin-3-yl)-3,5-difluorophenethyl)octahydrocyclopenta[c]pyrrol-5-yl)-N,1^1,2^6,7-tetramethyl-3-oxo-5^2,5^1-dihydro-1^1H,5^1H-11-oxa-4-aza-5(2,1)-benzo[d]imidazola-2(2,4)-pyridina-1(4,5)-pyrazolacycloundecaphane-5^6-carboxamide] | 75.49%
13 | 0.478 nM | 89.5% | 0.313 nM | Cc1cc2cc(n1)-c1cnn(C)c1OCCC[C@@H](C)CN1/C(=N/C2=O)Nc2ccc(C(=O)N3CC[C@@H](N(C)CCc4cc(F)c([C@H]5CCC(=O)NC5=O)c(F)c4)C3)cc21 [Example 295, (R)-3-(2,6-difluoro-4-(2-(menthyl((R)-1-((R,E)-1^1,2^6,7-trimethyl-3-oxo-5^2,5^3-dihydro-1^1H,5^1H-11-oxa-4-aza-5(2,1)-benzo[d]imidazola-2(2,4)-pyridina-1(4,5)-pyrazolacycloundecaphane-5^6-carbonyl)pyrrolidin-3-yl)amino)ethyl)phenyl)piperidine-2,6-dione] | 78.39%
